Laboratory results published in article PMC10518257 (Nature Cancer, 2023).
Values joined by “and” are separate entries in the source; they are usually repeats but may differ in a detail not shown here. Equal entries are not always repeated.

Experiments:
LUAD-0087AS2 PDX = assay: PDX efficacy study; details: Fig. 6a LUAD-0087AS2; selpercatinib 30 mg/kg BID; individual animals
recombinant human RET = biological target: T1, recombinant human RET (Homo sapiens, UniProt P07949); assay: RET^WT kinase-inhibition assay (LANCE TR-FRET); format: biochemical; details: 10 μM ATP
T1 construct: purchased Carna Biosciences, Inc (Kobe, Japan)

[1] = biological target: panel of 255 (vepafestinib) or 256 (all other inhibitors) recombinant kinases; assay: Kinase selectivity profiling at a single concentration (Carna Biosciences); format: biochemical; details: 26 nM, 256 kinases
KIF5B–RET WT = biological target: T2, KIF5B–RET WT (Homo sapiens, UniProt P07949); assay: In-cell western assay of RET autophosphorylation; format: cell-based; details: Jump-In GripTite HEK293, 1 h, phospho-RET (Y905)/RET
T2 construct: Fusion of the RET kinase domain with several N-terminal partners such as kinesin family 5B (KIF5B); KIF5B (N-terminal fusion partner); expressed in transfected cells; host or cells: Jump-In GripTite HEK293 (transient, pJTI Fast-based vector)

KIF5B–RET L730Q = biological target: T3, KIF5B–RET L730Q (Homo sapiens, UniProt P07949, L730Q); assay: In-cell western assay of RET autophosphorylation; format: cell-based; details: Jump-In GripTite HEK293 cells, one hour; Mean
T3 construct: Fusion of the RET kinase domain with several N-terminal partners such as kinesin family 5B (KIF5B); KIF5B (N-terminal fusion partner); expressed in transfected cells; host or cells: Jump-In GripTite HEK293 (transient)

KIF5B–RET L730R = biological target: T4, KIF5B–RET L730R (Homo sapiens, UniProt P07949, L730R); assay: In-cell western assay of RET autophosphorylation; format: cell-based; details: Jump-In GripTite HEK293 cells, one hour; Mean
T4 construct: Fusion of the RET kinase domain with several N-terminal partners such as kinesin family 5B (KIF5B); KIF5B (N-terminal fusion partner); expressed in transfected cells; host or cells: Jump-In GripTite HEK293 (transient)

KIF5B–RET E732K = biological target: T5, KIF5B–RET E732K (Homo sapiens, UniProt P07949, E732K); assay: In-cell western assay of RET autophosphorylation; format: cell-based; details: Jump-In GripTite HEK293 cells, one hour; Mean
T5 construct: Fusion of the RET kinase domain with several N-terminal partners such as kinesin family 5B (KIF5B); KIF5B (N-terminal fusion partner); expressed in transfected cells; host or cells: Jump-In GripTite HEK293 (transient)

KIF5B–RET G736A = biological target: T6, KIF5B–RET G736A (Homo sapiens, UniProt P07949, G736A); assay: In-cell western assay of RET autophosphorylation; format: cell-based; details: Jump-In GripTite HEK293 cells, one hour; Mean
T6 construct: Fusion of the RET kinase domain with several N-terminal partners such as kinesin family 5B (KIF5B); KIF5B (N-terminal fusion partner); expressed in transfected cells; host or cells: Jump-In GripTite HEK293 (transient)

KIF5B–RET M759I = biological target: T7, KIF5B–RET M759I (Homo sapiens, UniProt P07949, M759I); assay: In-cell western assay of RET autophosphorylation; format: cell-based; details: Jump-In GripTite HEK293 cells, one hour; Mean (TPX-0046: the three replicates)
T7 construct: Fusion of the RET kinase domain with several N-terminal partners such as kinesin family 5B (KIF5B); KIF5B (N-terminal fusion partner); expressed in transfected cells; host or cells: Jump-In GripTite HEK293 (transient)

KIF5B–RET L760Q = biological target: T8, KIF5B–RET L760Q (Homo sapiens, UniProt P07949, L760Q); assay: In-cell western assay of RET autophosphorylation; format: cell-based; details: Jump-In GripTite HEK293 cells, one hour; Mean
T8 construct: Fusion of the RET kinase domain with several N-terminal partners such as kinesin family 5B (KIF5B); KIF5B (N-terminal fusion partner); expressed in transfected cells; host or cells: Jump-In GripTite HEK293 (transient)

KIF5B–RET E768Q = biological target: T9, KIF5B–RET E768Q (Homo sapiens, UniProt P07949, E768Q); assay: In-cell western assay of RET autophosphorylation; format: cell-based; details: Jump-In GripTite HEK293 cells, one hour; Mean
T9 construct: Fusion of the RET kinase domain with several N-terminal partners such as kinesin family 5B (KIF5B); KIF5B (N-terminal fusion partner); expressed in transfected cells; host or cells: Jump-In GripTite HEK293 (transient)

KIF5B–RET L772M = biological target: T10, KIF5B–RET L772M (Homo sapiens, UniProt P07949, L772M); assay: In-cell western assay of RET autophosphorylation; format: cell-based; details: Jump-In GripTite HEK293 cells, one hour; Mean
T10 construct: Fusion of the RET kinase domain with several N-terminal partners such as kinesin family 5B (KIF5B); KIF5B (N-terminal fusion partner); expressed in transfected cells; host or cells: Jump-In GripTite HEK293 (transient)

KIF5B–RET I788N = biological target: T11, KIF5B–RET I788N (Homo sapiens, UniProt P07949, I788N); assay: In-cell western assay of RET autophosphorylation; format: cell-based; details: Jump-In GripTite HEK293 cells, one hour; Mean
T11 construct: Fusion of the RET kinase domain with several N-terminal partners such as kinesin family 5B (KIF5B); KIF5B (N-terminal fusion partner); expressed in transfected cells; host or cells: Jump-In GripTite HEK293 (transient)

KIF5B–RET Y806C = biological target: T12, KIF5B–RET Y806C (Homo sapiens, UniProt P07949, Y806C); assay: In-cell western assay of RET autophosphorylation; format: cell-based; details: Jump-In GripTite HEK293 cells, one hour; Mean
T12 construct: Fusion of the RET kinase domain with several N-terminal partners such as kinesin family 5B (KIF5B); KIF5B (N-terminal fusion partner); expressed in transfected cells; host or cells: Jump-In GripTite HEK293 (transient)

KIF5B–RET G810A = biological target: T13, KIF5B–RET G810A (Homo sapiens, UniProt P07949, G810A); assay: In-cell western assay of RET autophosphorylation; format: cell-based; details: Jump-In GripTite HEK293 cells, one hour; Mean
T13 construct: Fusion of the RET kinase domain with several N-terminal partners such as kinesin family 5B (KIF5B); KIF5B (N-terminal fusion partner); expressed in transfected cells; host or cells: Jump-In GripTite HEK293 (transient)

KIF5B–RET G810C = biological target: T14, KIF5B–RET G810C (Homo sapiens, UniProt P07949, G810C); assay: In-cell western assay of RET autophosphorylation; format: cell-based; details: Jump-In GripTite HEK293 cells, one hour; Mean
T14 construct: Fusion of the RET kinase domain with several N-terminal partners such as kinesin family 5B (KIF5B); KIF5B (N-terminal fusion partner); expressed in transfected cells; host or cells: Jump-In GripTite HEK293 (transient)

KIF5B–RET G810D = biological target: T15, KIF5B–RET G810D (Homo sapiens, UniProt P07949, G810D); assay: In-cell western assay of RET autophosphorylation; format: cell-based; details: Jump-In GripTite HEK293 cells, one hour; Mean
T15 construct: Fusion of the RET kinase domain with several N-terminal partners such as kinesin family 5B (KIF5B); KIF5B (N-terminal fusion partner); expressed in transfected cells; host or cells: Jump-In GripTite HEK293 (transient)

KIF5B–RET G810S = biological target: T16, KIF5B–RET G810S (Homo sapiens, UniProt P07949, G810S); assay: In-cell western assay of RET autophosphorylation; format: cell-based; details: Jump-In GripTite HEK293 cells, one hour; Mean
T16 construct: Fusion of the RET kinase domain with several N-terminal partners such as kinesin family 5B (KIF5B); KIF5B (N-terminal fusion partner); expressed in transfected cells; host or cells: Jump-In GripTite HEK293 (transient)

KIF5B–RET G810R = biological target: T17, KIF5B–RET G810R (Homo sapiens, UniProt P07949, G810R); assay: In-cell western assay of RET autophosphorylation; format: cell-based; details: Jump-In GripTite HEK293, 1 h, phospho-RET (Y905)/RET
T17 construct: Fusion of the RET kinase domain with several N-terminal partners such as kinesin family 5B (KIF5B); KIF5B (N-terminal fusion partner); expressed in transfected cells; host or cells: Jump-In GripTite HEK293 (transient)

in vivo = details: male, BALB/c, mouse, brain and plasma, po, 50 mg/kg, Kp,uu,brain (unbound brain/plasma concentration ratio), male BALB/c mice, 50 mg per kg oral, 0.5 h or 1 h

T7 sequence (P07949 713-1063 M759I limits assumed): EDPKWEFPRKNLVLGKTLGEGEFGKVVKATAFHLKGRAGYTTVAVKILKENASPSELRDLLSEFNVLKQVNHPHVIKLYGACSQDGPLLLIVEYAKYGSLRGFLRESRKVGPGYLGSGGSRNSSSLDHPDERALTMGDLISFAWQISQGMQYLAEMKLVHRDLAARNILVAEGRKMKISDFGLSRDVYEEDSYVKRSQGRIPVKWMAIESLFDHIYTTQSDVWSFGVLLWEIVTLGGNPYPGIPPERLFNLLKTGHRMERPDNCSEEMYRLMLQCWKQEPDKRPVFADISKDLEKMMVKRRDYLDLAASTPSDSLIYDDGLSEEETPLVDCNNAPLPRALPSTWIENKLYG
T2 sequence (P07949 713-1063 limits assumed): as the sequence (P07949 713-1063 M759I limits assumed) above, with I47M counted along it
T12 sequence (P07949 713-1063 Y806C limits assumed): as the sequence (P07949 713-1063 M759I limits assumed) above, with I47M, Y94C counted along it
T17 sequence (P07949 713-1063 G810R limits assumed): as the sequence (P07949 713-1063 M759I limits assumed) above, with I47M, G98R counted along it
T13 sequence (P07949 713-1063 G810A limits assumed): as the sequence (P07949 713-1063 M759I limits assumed) above, with I47M, G98A counted along it
T16 sequence (P07949 713-1063 G810S limits assumed): as the sequence (P07949 713-1063 M759I limits assumed) above, with I47M, G98S counted along it
T10 sequence (P07949 713-1063 L772M limits assumed): as the sequence (P07949 713-1063 M759I limits assumed) above, with I47M, L60M counted along it
T8 sequence (P07949 713-1063 L760Q limits assumed): as the sequence (P07949 713-1063 M759I limits assumed) above, with I47M, L48Q counted along it
T11 sequence (P07949 713-1063 I788N limits assumed): as the sequence (P07949 713-1063 M759I limits assumed) above, with I47M, I76N counted along it
T3 sequence (P07949 713-1063 L730Q limits assumed): as the sequence (P07949 713-1063 M759I limits assumed) above, with L18Q, I47M counted along it
T5 sequence (P07949 713-1063 E732K limits assumed): as the sequence (P07949 713-1063 M759I limits assumed) above, with E20K, I47M counted along it
T14 sequence (P07949 713-1063 G810C limits assumed): as the sequence (P07949 713-1063 M759I limits assumed) above, with I47M, G98C counted along it
T6 sequence (P07949 713-1063 G736A limits assumed): as the sequence (P07949 713-1063 M759I limits assumed) above, with G24A, I47M counted along it
T1 sequence (P07949 29-1114): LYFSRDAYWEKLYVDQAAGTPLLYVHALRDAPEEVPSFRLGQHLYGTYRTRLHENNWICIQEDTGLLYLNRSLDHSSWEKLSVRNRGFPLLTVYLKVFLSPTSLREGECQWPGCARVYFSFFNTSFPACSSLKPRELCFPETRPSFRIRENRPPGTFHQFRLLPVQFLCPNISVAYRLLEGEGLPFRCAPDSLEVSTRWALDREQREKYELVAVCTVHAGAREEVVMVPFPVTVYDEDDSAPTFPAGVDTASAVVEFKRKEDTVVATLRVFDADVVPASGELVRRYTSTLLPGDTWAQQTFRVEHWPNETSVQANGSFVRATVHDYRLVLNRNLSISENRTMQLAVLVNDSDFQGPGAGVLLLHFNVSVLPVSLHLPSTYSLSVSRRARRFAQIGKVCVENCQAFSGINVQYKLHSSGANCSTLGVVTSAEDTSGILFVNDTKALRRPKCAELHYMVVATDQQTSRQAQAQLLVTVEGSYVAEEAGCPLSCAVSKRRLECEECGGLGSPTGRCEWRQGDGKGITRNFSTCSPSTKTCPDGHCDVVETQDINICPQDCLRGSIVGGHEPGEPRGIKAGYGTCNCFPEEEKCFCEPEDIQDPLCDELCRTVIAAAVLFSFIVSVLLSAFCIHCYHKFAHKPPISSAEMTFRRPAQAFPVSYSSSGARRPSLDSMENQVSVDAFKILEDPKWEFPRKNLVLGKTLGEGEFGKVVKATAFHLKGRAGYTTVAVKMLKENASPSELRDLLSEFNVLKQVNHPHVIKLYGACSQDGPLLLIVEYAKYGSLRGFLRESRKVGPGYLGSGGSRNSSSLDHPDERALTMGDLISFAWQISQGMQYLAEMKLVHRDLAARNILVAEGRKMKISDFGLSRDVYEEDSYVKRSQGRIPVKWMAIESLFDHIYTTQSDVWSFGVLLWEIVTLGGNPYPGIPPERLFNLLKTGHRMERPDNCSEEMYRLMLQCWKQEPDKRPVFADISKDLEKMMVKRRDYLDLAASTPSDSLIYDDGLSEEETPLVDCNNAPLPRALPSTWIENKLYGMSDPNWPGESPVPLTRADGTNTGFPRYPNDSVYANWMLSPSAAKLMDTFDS
T4 sequence (P07949 713-1063 L730R limits assumed): as the sequence (P07949 713-1063 M759I limits assumed) above, with L18R, I47M counted along it
T9 sequence (P07949 713-1063 E768Q limits assumed): as the sequence (P07949 713-1063 M759I limits assumed) above, with I47M, E56Q counted along it
T15 sequence (P07949 713-1063 G810D limits assumed): as the sequence (P07949 713-1063 M759I limits assumed) above, with I47M, G98D counted along it

| IC50 (recombinant human RET) | kinases inhibited by >50% [1] | IC50 (KIF5B–RET WT) | IC50 (KIF5B–RET L730Q) | IC50 (KIF5B–RET L730R) | IC50 (KIF5B–RET E732K) | IC50 (KIF5B–RET G736A) | IC50 (KIF5B–RET M759I) | IC50 (KIF5B–RET L760Q) | IC50 (KIF5B–RET E768Q) | IC50 (KIF5B–RET L772M) | IC50 (KIF5B–RET I788N) | IC50 (KIF5B–RET Y806C) | IC50 (KIF5B–RET G810A) | IC50 (KIF5B–RET G810C) | IC50 (KIF5B–RET G810D) | IC50 (KIF5B–RET G810S) | IC50 (KIF5B–RET G810R) | Kp uu (in vivo) | Compound | Change in tumor volume (% from base line) (LUAD-0087AS2 PDX) |
| --- | --- | --- | --- | --- | --- | --- | --- | --- | --- | --- | --- | --- | --- | --- | --- | --- | --- | --- | --- | --- |
|  |  |  |  |  |  |  |  |  |  |  |  |  |  |  |  |  |  |  | COc1ccc(CN2C3CC2CN(c2ccc(-c4cc(OCC(C)(C)O)cn5ncc(C#N)c45)cn2)C3)cn1 [Sepercatinib] | -13.818% and -42.542% and -38.123% and -35.767% and -33.072% |
| 0.26 ± 0.02 nM | 39 | 21.9 nM | 16.6 nM | 4.49 nM | 14.7 nM | 3.21 nM | < 1 nM and 1.2 nM and 1.72 nM | 5.35 nM | 4.05 nM | 2.69 nM | 50.6 nM | 50 nM | 6.53 nM | 36.1 nM | 57.9 nM | 5.87 nM | 108 nM | 0.077 | C[C@H]1CNC(=O)c2cnn3cc4c(nc23)N(Cc2cc(F)cnc2O1)[C@@H]1CCC[C@@H]1O4 [TPX-0046] |  |
